Source: patent publication US4447452A, “N[(2-Naphthalenyl)thioxomethyl]glycine derivatives” (Ayerst, McKenna & Harrison Inc., priority 1981, dated 1984)

Experiments:
aldose reductase [1] = details: literature report; cited from earlier work
aldose reductase [2] = target: T1, aldose reductase (Bos taurus, UniProt P16116); assay: in vitro aldose reductase inhibition (modified Hayman and Kinoshita procedure, enzyme from bovine lens); type: biochemical; details: read-out: % Inhibition at Different Molar Concentrations (in vitro); for inhibition at 10 µM: 10^-5 molar; for inhibition at 1 µM: 10^-6 molar; for inhibition at 0.1 µM: 10^-7 molar
T1 construct: preparation of the enzyme from bovine lens; from tissue; host or cells: bovine lens
Method: In the present case the procedure of Hayman and Kinoshita is modified in that the final chromatography step is omitted in the preparation of the enzyme from bovine lens.
The following results were obtained when the compounds of this invention were evaluated in the above in vitro test.

inhibition at 10 µM (aldose reductase [2])	inhibition at 1 µM (aldose reductase [2])	inhibition at 0.1 µM (aldose reductase [2])	SMILES	inhibition of aldose reductase (in words) (aldose reductase [1])
			O=C(O)CN1C(=O)c2cccc3cccc(c23)C1=O [1,3-Dioxo-1H-benz[de]isoquinoline-2(3H)-acetic acid]	effective inhibitor of aldose reductase
87%	70%	21%	CN(CC(=O)O)C(=S)c1ccc2c(Br)cccc2c1 [CH3 5-Br, N-[(5-bromo-2-naphthalenyl)thioxomethyl]-N-methylglycine]	
84%	60%	19%	CN(CC(=O)O)C(=S)c1ccc2cc(Br)ccc2c1 [CH3 6-Br, N-[(6-Bromo-2-naphthalenyl)thioxomethyl]-N-methylglycine]	
			O=C1NC(=O)[C@@]2(CCOc3ccc(F)cc32)N1 [sorbinil, (S)-6-Fluoro-2,3-dihydrospiro(4H-1-benzopyran-4,4'-imidazolidine)-2',5'-dione]	aldose reductase inhibiting properties
